Values quoted from earlier work, collected in patent publication US20120101390A1, “Multi-Modal Imaging for Diagnosis of Early Stage Epithelial Cancers” (priority 2010, published 2012).

Biological target: T1, integrin αvβ3 (Homo sapiens, UniProt P05106+P06756)
T1 construct: integrin αvβ3-positive U87MG xenograft models; endogenous in cells; host or cells: U87MG (tumour xenograft)
Conditions: integrin αvβ3-positive U87MG xenograft models

T1 sequence (P06756 31-889 limits assumed): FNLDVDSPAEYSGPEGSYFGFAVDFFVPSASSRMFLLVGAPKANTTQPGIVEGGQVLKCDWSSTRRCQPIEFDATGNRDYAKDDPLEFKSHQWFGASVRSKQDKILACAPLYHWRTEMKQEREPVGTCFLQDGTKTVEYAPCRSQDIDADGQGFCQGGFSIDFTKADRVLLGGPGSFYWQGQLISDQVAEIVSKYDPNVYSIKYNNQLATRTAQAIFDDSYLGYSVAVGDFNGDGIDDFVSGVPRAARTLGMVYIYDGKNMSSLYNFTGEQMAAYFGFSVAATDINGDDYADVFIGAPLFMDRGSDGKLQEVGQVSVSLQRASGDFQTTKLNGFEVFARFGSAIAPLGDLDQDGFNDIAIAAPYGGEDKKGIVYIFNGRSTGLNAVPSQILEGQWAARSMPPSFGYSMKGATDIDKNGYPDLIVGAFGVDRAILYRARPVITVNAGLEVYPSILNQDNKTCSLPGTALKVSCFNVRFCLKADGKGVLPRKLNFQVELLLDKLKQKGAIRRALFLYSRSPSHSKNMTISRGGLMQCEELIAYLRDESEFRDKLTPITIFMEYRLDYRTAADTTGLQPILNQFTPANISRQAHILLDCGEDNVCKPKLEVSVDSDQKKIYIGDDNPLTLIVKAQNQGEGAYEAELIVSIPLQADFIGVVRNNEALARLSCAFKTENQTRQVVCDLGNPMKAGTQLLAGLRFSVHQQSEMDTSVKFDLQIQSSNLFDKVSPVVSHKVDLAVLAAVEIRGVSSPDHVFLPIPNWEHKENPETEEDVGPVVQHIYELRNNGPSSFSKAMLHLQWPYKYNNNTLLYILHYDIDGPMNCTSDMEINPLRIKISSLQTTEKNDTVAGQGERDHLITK
T1 sequence (P06756 891-1048 limits assumed): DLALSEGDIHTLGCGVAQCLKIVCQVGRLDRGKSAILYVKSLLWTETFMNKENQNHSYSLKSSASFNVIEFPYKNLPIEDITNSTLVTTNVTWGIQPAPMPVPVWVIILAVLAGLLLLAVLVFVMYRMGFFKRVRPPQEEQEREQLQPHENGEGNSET
T1 sequence (P05106 27-788): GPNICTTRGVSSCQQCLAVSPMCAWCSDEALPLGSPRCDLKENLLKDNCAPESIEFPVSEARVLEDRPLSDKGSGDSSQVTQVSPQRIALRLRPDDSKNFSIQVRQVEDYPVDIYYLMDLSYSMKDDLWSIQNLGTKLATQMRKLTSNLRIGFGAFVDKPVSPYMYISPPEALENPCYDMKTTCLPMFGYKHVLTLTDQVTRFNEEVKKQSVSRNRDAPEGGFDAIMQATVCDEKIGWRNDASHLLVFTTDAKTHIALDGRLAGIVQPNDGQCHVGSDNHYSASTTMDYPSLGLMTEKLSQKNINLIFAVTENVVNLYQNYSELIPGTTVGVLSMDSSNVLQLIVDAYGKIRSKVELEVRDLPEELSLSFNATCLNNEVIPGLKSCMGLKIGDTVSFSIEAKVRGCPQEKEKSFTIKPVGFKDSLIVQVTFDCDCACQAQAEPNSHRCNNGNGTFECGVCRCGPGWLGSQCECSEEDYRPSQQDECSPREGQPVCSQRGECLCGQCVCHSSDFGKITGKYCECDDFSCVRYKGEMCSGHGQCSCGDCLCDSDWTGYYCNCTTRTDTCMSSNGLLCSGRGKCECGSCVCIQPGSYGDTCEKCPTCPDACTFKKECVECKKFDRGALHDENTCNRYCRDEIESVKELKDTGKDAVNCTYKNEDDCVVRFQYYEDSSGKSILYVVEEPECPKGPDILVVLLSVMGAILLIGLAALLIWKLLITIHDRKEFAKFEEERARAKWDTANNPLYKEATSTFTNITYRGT

Row | binding relative to the monomeric counterpart | Substance
1 | stronger binding | E-[G-G-G-c(RGDfK)]2
2 | stronger binding | E-{G-[c(RGDfK)]2}2
3 | stronger binding | E-[c(RGDfK)]2
